Results on seven compounds are retold here after patent US9809574B2, “Isoindoline or isoquinoline compounds, a process for their preparation and pharmaceutical compositions containing them” (LES LABORATOIRES SERVIER, priority 2013, dated 2017).

Counter-ions that a name gives are not always drawn.

One may read the IC50 as the point on the concentration scale where inhibition reaches its midpoint.

In one assay the target is Bcl-2 protein (histag-Bcl-2, UniProtKB P10415) (Homo sapiens (Human), UniProt P10415). The experiment in a line: Inhibition of Bcl-2 by the fluorescence polarisation technique. Format: binding. The note with it: fluorescence polarisation test; incubation for 2 hours; read-out: IC50 (nM) Bcl-2 FP. The text has this: For partial inhibitors, the percentage fluorescence polarisation inhibition for a given concentration of the test compound is indicated.
(Fluorescence polarisation rises when a labelled molecule tumbles more slowly, as on binding a larger partner.)

In assay [1] the test system is RS4; 11 leukaemia cell line. The experiment in a line: In vitro cytotoxicity, Microculture Tetrazolium Assay (MTT). Format: cell-based. The note with it: Homo sapiens, 11 cells exposed for 48 hours. As for the experimental part: The cytotoxicity studies were carried out on the RS4; 11 leukaemia cell line and on H146 small Cell Lung Carcinoma cell line. The cells are distributed onto microplates and exposed to the test compounds for 48 hours. The cell viability is then quantified by a colorimetric assay, the Microculture Tetrazolium Assay (Cancer Res., 1987, 47, 939-942).

Chain of Bcl-2 protein (P10415 whole entry): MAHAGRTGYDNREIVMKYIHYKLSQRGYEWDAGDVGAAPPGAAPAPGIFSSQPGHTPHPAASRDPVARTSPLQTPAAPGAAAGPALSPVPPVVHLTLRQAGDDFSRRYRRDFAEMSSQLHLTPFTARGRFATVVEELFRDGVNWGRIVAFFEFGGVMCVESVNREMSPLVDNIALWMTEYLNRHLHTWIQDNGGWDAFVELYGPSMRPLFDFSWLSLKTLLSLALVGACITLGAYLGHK

For the compound `Cc1ccc(OC(=O)N2CCc3cc(-c4cc(C(=O)N(C)c5ccc(O)cc5)c5n4CCCC5)c(C(=O)N4Cc5ccccc5C[C@H]4CN4CCOCC4)cc3C2)cc1` [Example 98, 4-Methylphenyl 6-{1-[(4-hydroxyphenyl)(methyl)carbamoyl]-5,6,7,8-tetrahydroindolizin-3-yl}-7-[(3S)-3-(morpholin-4-ylmethyl)-1,2,3,4-tetrahydroisoquinoline-2-carbonyl]-1,2,3,4-tetrahydroisoquinoline-2-carboxylate hydrochloride], the IC50 at Bcl-2 protein turned out to be 3.8 nM; in assay [1] it was 1.8 nM.
The corresponding values for `Cc1cccc(OC(=O)N2CCc3cc(-c4cc(C(=O)N(C)c5ccc(O)cc5)c5n4CCCC5)c(C(=O)N4Cc5ccccc5C[C@H]4CN4CCOCC4)cc3C2)c1` [Example 99, 3-Methylphenyl 6-{1-[(4-hydroxyphenyl)(methyl)carbamoyl]-5,6,7,8-tetrahydroindolizin-3-yl}-7-[(3S)-3-(morpholin-4-ylmethyl)-1,2,3,4-tetrahydroisoquinoline-2-carbonyl]-1,2,3,4-tetrahydroisoquinoline-2-carboxylate] are 5.5 nM and 13 nM.
The corresponding values for `Cc1ccccc1OC(=O)N1CCc2cc(-c3cc(C(=O)N(C)c4ccc(O)cc4)c4n3CCCC4)c(C(=O)N3Cc4ccccc4C[C@H]3CN3CCOCC3)cc2C1` [Example 100, 2-Methylphenyl 6-{1-[(4-hydroxyphenyl)(methyl)carbamoyl]-5,6,7,8-tetrahydroindolizin-3-yl}-7-[(3S)-3-(morpholin-4-ylmethyl)-1,2,3,4-tetrahydroisoquinoline-2-carbonyl]-1,2,3,4-tetrahydroisoquinoline-2-carboxylate] are 3.9 nM and 6.5 nM.
`COc1ccc(CC(=O)N2Cc3cc(C(=O)N4Cc5ccccc5C[C@H]4C)c(-c4cc(C(=O)N(C)c5ccc(O)cc5)c(C)n4C)cc3C2)cc1` [Example 101, N-(4-Hydroxyphenyl)-5-{2-[2-(4-methoxyphenyl)acetyl]-6-[(3R)-3-methyl-1,2,3,4-tetrahydroisoquinoline-2-carbonyl]-2,3-dihydro-1H-isoindol-5-yl}-N,1,2-trimethyl-1H-pyrrole-3-carboxamide]: the half-maximal inhibitory concentration (IC50) at Bcl-2 protein was found to be 2.6 nM; in assay [1], 31 nM.
In the case of `Cc1c(C(=O)N(C)c2ccc(O)cc2)cc(-c2cc3c(cc2C(=O)N2Cc4ccccc4C[C@H]2C)CN(C(=O)Cc2ccc(F)cc2)C3)n1C` [Example 102, 5-{2-[2-(4-Fluorophenyl)acetyl]-6-[(3R)-3-methyl-1,2,3,4-tetrahydroisoquinoline-2-carbonyl]-2,3-dihydro-1H-isoindol-5-yl}-N-(4-hydroxyphenyl)-N,1,2-trimethyl-1H-pyrrole-3-carboxamide], the IC50 came to 5 nM on Bcl-2 protein and 75 nM in assay [1].
The corresponding values for `Cc1c(C(=O)N(C)c2ccc(O)cc2)cc(-c2cc3c(cc2C(=O)N2Cc4ccccc4C[C@H]2C)CN(C(=O)COc2ccccc2)C3)n1C` [Example 103, N-(4-Hydroxyphenyl)-N,1,2-trimethyl-5-{6-[(3R)-3-methyl-1,2,3,4-tetrahydroisoquinoline-2-carbonyl]-2-(2-phenoxyacetyl)-2,3-dihydro-1H-isoindol-5-yl}-1H-pyrrole-3-carboxamide] are 3.6 nM and 46 nM.
The corresponding values for `Cc1c(C(=O)N(C)c2ccc(O)cc2)cc(-c2cc3c(cc2C(=O)N2Cc4ccccc4C[C@H]2C)CN(C(=O)C(C)Oc2ccccc2)C3)n1C` (stereo partly drawn) [Example 104, N-(4-hydroxyphenyl)-N,1,2-trimethyl-5-{6-[(3R)-3-methyl-1,2,3,4-tetrahydroisoquinoline-2-carbonyl]-2-(2-phenoxypropanoyl)-2,3-dihydro-1H-isoindol-5-yl}-1H-pyrrole-3-carboxamide] are 6.7 nM and 65 nM.
